Test results reported in patent US9388123B2, “LSD1-selective inhibitor having lysine structure” (KYOTO UNIVERSITY, priority 2012, dated 2016).
Where a name gives a salt, the structure may show the parent alone.

Tests used:
[1] = test system: bone marrow cells of normal mice; assay: Normal cell growth inhibition evaluation (colony forming ability in methylcellulose semi-solid medium); format: cell-based; conditions: 10 days culture, FIG. 1
Description: In general, a semi-solid medium obtained by adding a cytokine involved in differentiation induction to a methylcellulose medium is used to evaluate a colony forming ability. Some of the bone marrow cells contain hematopoietic stem cells and precursor cells, which are sources of hematopoietic cells, and these cells can create a mass (called a colony) formed of several tens, several hundreds, and in some cases, several thousands of cells from a single cell on a semi-solid medium. The colony forming ability of the bone marrow cells may be evaluated by counting the number of the colonies. The colony forming ability in the semi-solid medium well reflects an actual supply ability and construction ability from the hematopoietic stem cells and precursor cells to the hematopoietic cells in vivo.
To 3 ml of MethoCult M3434 (methylcellulose-based semi-solid medium; StemCell Technologies; containing interleukin 3(IL-3), interleukin 6 (IL-6), erythropoietin (EPO), and stem cell factor (SCF)) were added 600,000 bone marrow cells of normal mice (suspended in 300 μl of IMDM medium), and the mixture was stirred well and plated at 1.1 ml per 3.5-cm culture dish. The cells were cultured under the conditions of 5% CO2 and 37° C. for 10 days in an incubator. A mass in which the number of cells was 50 or more was defined as a colony, and the number of colonies formed on each dish was counted.

[2] = test system: human leukemia cell lines; assay: Leukemia cell growth inhibition evaluation, summary in words; format: cell-based; conditions: Table 5
Description: (§1) HL60, THP-1, K562, U937, KGla, HEL, and MDS-L were used as human leukemia cells. The cell lines are cell lines established from various subtypes such as acute myeloid leukemia, acute promyelocytic leukemia, acute monocytic leukemia, acute erythroid leukemia, and myelodysplastic syndromes, which progress to leukemia. Cells obtained by introducing leukemia fusion genes MLL/AF9, MLL/SEPT6, and MLL/ENL into the bone marrow of normal mice with a retrovirus so as to develop leukemia were used as murine leukemia cell lines.
(§2) This assay method involves, as a principle thereof, measuring an absorbance (a peak at from 450 nm to 490 nm) at the time of color development through a reaction of NADH, which is contained in the mitochondria of viable cells, and WST-8 to measure the amount of NADH. Specifically, the assay was performed by the following procedure.
(§3) The cells were plated at 50 μl, i.e., 5,000 cells per well in a 96-well microtiter plate. Next, a test compound dissolved in DMSO was mixed at various concentrations into the same medium, and 50 μl of each of the mixtures was added to each well. A medium was prepared so that the final concentration of the test compound was from 0 μM to 50 μM and so that the addition amount of DMSO was the same, and the cells were cultured in a CO2 incubator. On day 0 before the addition and on day 1, day 2, and day 3 after the addition, WST-8 reagent was added at 20 μl per well, and the cells were cultured for 1 hour in a CO2 incubator. After that, measurement was performed with ARVO X3 (manufactured by PerkinElmer).
(§4) Specifically, an absorbance at 450 nm was measured, an absorbance at 595 nm was measured in the same well, and the absorbance at 595 nm was subtracted from the absorbance at 450 nm to perform background correction for the well itself. Further, a well containing only a medium free of cells was subjected to the same measurement. A value in this case was also subtracted. Thus, the amount of viable cells was represented as a numerical value with correction of the influence of a medicament or a medium as well. Under a condition not containing the test compound (addition of only dimethyl sulfoxide), an exponential increase in number of viable cells on day 1, day 2, and day 3 in the stated order was confirmed.

[3] = test system: murine leukemia cell lines; assay: as above; format: cell-based; conditions: Table 6
Description: as §1, §2, §3, §4

[4] = molecular target: T1, monoamine oxidase A (MAO-A) (Homo sapiens, UniProt P21397); assay: Monoamine oxidase inhibition test (MAO-Glo assay kit); format: biochemical; conditions: room temperature, 1 hour
T1 construct: purchased Sigma-Aldrich
T1 sequence (P21397 1-527): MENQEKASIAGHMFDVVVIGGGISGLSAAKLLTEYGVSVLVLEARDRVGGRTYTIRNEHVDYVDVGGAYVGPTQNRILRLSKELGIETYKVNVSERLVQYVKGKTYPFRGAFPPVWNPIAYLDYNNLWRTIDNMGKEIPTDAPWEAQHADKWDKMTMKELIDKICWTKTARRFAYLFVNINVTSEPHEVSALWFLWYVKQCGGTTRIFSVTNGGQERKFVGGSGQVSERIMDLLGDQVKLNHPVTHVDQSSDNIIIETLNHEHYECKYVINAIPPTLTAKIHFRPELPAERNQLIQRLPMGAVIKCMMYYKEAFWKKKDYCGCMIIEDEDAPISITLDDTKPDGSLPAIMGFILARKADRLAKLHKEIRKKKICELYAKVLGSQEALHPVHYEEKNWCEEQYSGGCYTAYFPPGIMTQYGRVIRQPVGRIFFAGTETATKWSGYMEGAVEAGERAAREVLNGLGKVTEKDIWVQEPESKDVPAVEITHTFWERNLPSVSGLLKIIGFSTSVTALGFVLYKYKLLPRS
Description: To the reaction liquid was added 50 μL of a luciferin detection reagent, and the mixture was subjected to a reaction at room temperature for 20 minutes.

[5] = test system: MLL/SEPT6 leukemia cell line; assay: Leukemia cell growth inhibition evaluation (WST-8); format: cell-based; conditions: Mus musculus; day 3 (72-hour culture); read-out: Mouse MLL-fusion leukemia cell line GI50 (μM) MLL/SEPT6
Description: as §1, §2, §3, §4

[6] = test system: MDS-L; assay: Leukemia cell growth inhibition evaluation (WST-8); format: cell-based; conditions: Homo sapiens; day 3 (72-hour culture); read-out: Human leukemia cell line GI50 (μM) MDS-L
Description: as §1, §2, §3, §4

[7] = test system: KG1a; assay: Leukemia cell growth inhibition evaluation (WST-8); format: cell-based; conditions: Homo sapiens, KG-1a; day 3 (72-hour culture); read-out: Human leukemia cell line GI50 (μM) KG1a
Description: as §1, §2, §3, §4

[8] = test system: HEL; assay: Leukemia cell growth inhibition evaluation (WST-8); format: cell-based; conditions: Homo sapiens, day 3 (72-hour culture), read-out: Human leukemia cell line GI50 (μM) HEL
Description: as §1, §2, §3, §4

[9] = test system: HL60; assay: Leukemia cell growth inhibition evaluation (WST-8); format: cell-based; conditions: Homo sapiens, HL-60; day 3 (72-hour culture); read-out: Human leukemia cell line GI50 (μM) HL60
Description: as §1, §2, §3, §4

[10] = test system: MLL/AF9 leukemia cell line; assay: Leukemia cell growth inhibition evaluation (WST-8); format: cell-based; conditions: Mus musculus, day 3 (72-hour culture), read-out: Mouse MLL-fusion leukemia cell line GI50 (μM) MLL/AF9
Description: as §1, §2, §3, §4

[11] = test system: THP1; assay: Leukemia cell growth inhibition evaluation (WST-8); format: cell-based; conditions: Homo sapiens, THP-1; day 3 (72-hour culture); read-out: Human leukemia cell line GI50 (μM) THP1
Description: as §1, §2, §3, §4

[12] = test system: U937; assay: Leukemia cell growth inhibition evaluation (WST-8); format: cell-based; conditions: Homo sapiens, U-937; day 3 (72-hour culture); read-out: Human leukemia cell line GI50 (μM) U937
Description: as §1, §2, §3, §4

[13] = at a concentration of up to 5 μM

| SMILES | colony forming ability ([1]; at 10 μM) | colony forming ability [1, 13] | growth inhibitory / suppressing effect on the human leukemia cell lines (in words) [2] | growth inhibitory / suppressing effect on the murine leukemia cell lines (in words) [3] | IC50 [4] [µM] | GI50 [5] [µM] | GI50 [6] [µM] | GI50 [7] [µM] | GI50 [8] [µM] | GI50 [9] [µM] | GI50 [10] [µM] | GI50 [11] [µM] | GI50 [12] [µM] |
| --- | --- | --- | --- | --- | --- | --- | --- | --- | --- | --- | --- | --- | --- |
| O=C(N[C@@H](CCCCNC1CC1c1ccccc1)C(=O)NCc1ccccc1)c1ccc(-c2ccccc2)cc1 (stereo partly drawn) [Example 8, 2-[N-(4-Phenylbenzenecarbonyl)]amino-6-(trans-2-phenylcyclopropan-1-amino)-N-benzylhexanamide Hydrochloride] | remarkably inhibited | not inhibited | higher growth suppressing effects on the human leukemia cell lines than Comparative Example 2 | very high growth suppressing effects | 86 | 4 to 5 | < 1.3 | ~6.3 | < 1.3 | 4 to 5 | < 2 | 5 to 6 | 4.6 |
| O=C(N[C@@H](CCCCNC1CC1c1ccccc1)C(=O)NCc1cccc(C(F)(F)F)c1)c1ccc(-c2ccccc2)cc1 (stereo partly drawn) [Example 19, 2-[N-(4-Phenylbenzenecarbonyl)]amino-6-(trans-2-phenylcyclopropan-1-amino)-N-(3-trifluoromethylbenzyl)hexanamide Hydrochloride] | remarkably inhibited | not inhibited | higher growth suppressing effects on the human leukemia cell lines than Comparative Example 2 | very high growth suppressing effects | > 100 | 2.5 to 5 | < 1.3 | 5 to 10 | ~5 | 2.5 to 5 | < 1.25 | 5 to 10 | 10 to 20 |
